“Also recorded” adds a separate entry of the source.
Key:
[1] = system: TGase activity (tTGase and Factor XIIIa) in meniscal cells; assay: TGase activity in cultured knee meniscal cells (BP incorporation into N,N-dimethylcasein); format: cell-based, human; details: meniscal cells, 72 hrs, IL-1 or TNFα 10 ng/ml; NMMA 10 μM or A20 transfection
Description: Meniscal cells were maintained in DMEM high glucose and supplemented with 10% FCS, 1% L-glutamine, 100 units/ml Penicillin and 50 μg/ml Streptomycin (Omega Scientific, Tarzana, Calif.) and cultured at 37° C. with 5% CO2. In monolayer cell culture studies involving stimulation by TGFE[…] or IL-1, the cells were placed in DMEM high glucose containing 1% FCS, 1% L-glutamine, 100 units/ml Penicillin and 50 μg/ml Streptomycin. In all other studies, the cells were cultured in complete medium (as described above). Only primary or first passage meniscal cells were studied.
TGase activity was measured by modifications to a previously described method (35). Specifically, we coated 96 well ImmunoModule plates (Nunc, Rochester, N.Y.) with 200 μl of 20 mg/ml N,N-dimethylcasein for 1 hr at 23° C. The N,N-dimethylcasein was removed and nonspecific protein binding was blocked by adding 3% BSA in 100 mM Tris, pH 8.5, 150 mM NaCl, 0.05% Tween-20 (TBST) to each well for an additional 1 hr at 23° C. Then, aliquots of 5 μg of total cellular protein from meniscal or TC28 cells that had been lysed and sonicated (in 5 mM Tris HCl, 0.25 M sucrose, 0.2 mM MgSO4, 2 mM DTT, 0.4 mM PMSF, 0.4% Triton X100, pH 7.5), were added to the plate in triplicate. To measure TGase in extracts of whole menisci, 50 mg dry weight of tissue from the central zone of each medial meniscus was used as the source (after solubilization and sonication) for aliquots of 5 μg of soluble protein. Fifty μl of solution A (100 mM Tris, pH 8.5 and 20 mM CaCl2) was added to all samples for TGase assay, followed by the addition of 50 μl of solution B (100 mM Tris, pH 8.5, 40 mM DTT and freshly added 2 mM 5-(Biotinamido) pentylamine (BP)). The plates were incubated for 1 hr at 37° C. The wells were washed once with TBST containing 1 mM EDTA and then three times with TBST. One hundred μl of a 1:500 dilution of streptavidin-AP in 3% BSA/TBST was added to each well for 1 hr at 23° C. The wells were washed twice with TBST, and 200 μl of solution C (100 mM Tris, pH 9.8, mM NaCl, 5 mM MgCl2, 1 mg/ml of freshly added p-nitrophenylphosphate) was added to each well. Readings at OD410 were taken over 15 minutes. Purified guinea pig liver TGase (Sigma) was used to prepare a standard curve. TGase activity was designated as the amount of BP incorporated into casein (per μg cellular DNA, determined chromogenically following precipitation in perchlorate (28), or, where indicated, per μg protein, determined as previously described (28)).
To directly induce expression of each TGase in meniscal cells, 5×10^5 primary cells were plated in 60 mm dishes and allowed to adhere overnight. We modified (28) the manufacturer's protocol for the Lipofectamine Plus kit (Life Technologies, Grand Island, N.Y.). To optimize the transfection of meniscal cells, we added 2.0 ml of serum-free DMEM/F12 containing 0.00015% digitonin to washed cells and incubated for 3 min at 23° C. Then, media was removed, and cells transfected at 37° C. for 7 hrs, followed by removal of the media and addition of complete DMEM high glucose medium. Transfection of each TGase into TC28 cells was done by the same procedure, with the exception that the digitonin permeabilization step was omitted.

[2] = system: NO release by meniscal cells; assay: NO release by cultured meniscal cells (Greiss reaction); format: cell-based, human; details: 72 hrs, IL-1 or TNFα 10 ng/ml, NMMA 10 μM or A20 transfection
Description: NO release by 3×10^5 meniscal cells, which were plated and stimulated with TNFα (10 ng/ml) or IL-1 (10 ng/ml), with or without 10 μM NMMA (FIG. 8A), for 72 hrs was studied. Conditioned media were collected and 50 μl aliquots analyzed for NO release using the Greiss Reaction, with results expressed as μmoles released per μg DNA. […] After 72 hrs of incubation with TNFα or IL-1, the conditioned media were collected from the cultured, transfected cells and analyzed in triplicate for NO release, as above. Data pooled from 4 normal donors studied in triplicate for FIGS. 8A and 8B. *p<0.05.
PPi was determined by differential adsorption on activated charcoal of UDP-D-[6-^3H] glucose (Amersham, Chicago, Ill.) from the reaction product 6-phospho [6-^3H] gluconate (28). Units of NTPPPH and AP were designated as micromoles of substrate hydrolyzed per hour (per μg DNA in each sample) (28). NO release by cultured meniscal cells was measured using the Greiss reaction (33). Concentrations or specific activities of PPi, NTPPPH, and AP were equalized for cellular DNA concentrations in each well.

## CNC(=N)NCCC[C@H](N)C(=O)O [NMMA, reference compound]
[1]
  Effect on IL-1 and TNFα-induced TGase activity: blocked the ability of both IL-1 and TNFα to induce TGase activity; also recorded: attenuated LL-1 and TNFα-induced TGase activity
[2]
  Effect on IL-1 and TNFα-induced NO release: attenuated IL-1 and TNFα-induced NO release; also recorded: suppresses IL-1 and TNFα-induced NO release

— patent US20040109845A1, “Method for inhibiting articular cartilage matrix calcification” (priority 2001, published 2004)
